From patent US20130331378A1, “PYRAZOLOPYRIDINE DERIVATIVE OR PHARMACOLOGICALLY ACCEPTABLE SALT THEREOF” (KISSEI PHARMACEUTICAL CO., LTD., priority 2011, published 2013)

Biological target: T1, rat EP1 receptor (Rattus norvegicus, UniProt P70597)
T1 construct: expressed in transfected cells
T1 sequence (P70597 1-405): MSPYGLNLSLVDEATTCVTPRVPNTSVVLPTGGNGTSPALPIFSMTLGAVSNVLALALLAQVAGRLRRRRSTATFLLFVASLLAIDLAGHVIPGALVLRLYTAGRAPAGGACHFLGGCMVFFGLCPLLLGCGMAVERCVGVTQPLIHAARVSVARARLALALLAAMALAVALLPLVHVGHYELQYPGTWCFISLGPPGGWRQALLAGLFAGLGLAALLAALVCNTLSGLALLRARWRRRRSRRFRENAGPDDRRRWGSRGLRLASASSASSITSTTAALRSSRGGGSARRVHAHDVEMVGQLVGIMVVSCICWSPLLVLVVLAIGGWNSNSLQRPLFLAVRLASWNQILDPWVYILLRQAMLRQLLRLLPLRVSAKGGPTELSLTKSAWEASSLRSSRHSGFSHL
Assay: Test for confirming EP1 receptor antagonistic effect: suppression of prostaglandin E2-induced rise in intracellular calcium concentration
Assay type: cell-based
Settings: rat EP1 receptor-expressing COS-1 cells; prostaglandin E2 10 nM; Fluo 4-AM fluorescent signal; test compound 0.1 nM to 10 μM
Method: (1) Preparation of Rat EP1 Expression Vector
The first PCR was performed with Rat Kidney BD Marathon-Ready cDNA (Nippon Becton Dickinson Co., Ltd.) as a template using a forward primer represented by SEQ ID NO: 1 and a reverse primer represented by SEQ ID NO: 2 and using KOD-Plus-Ver 2.0 (Toyobo Co., Ltd.). The second PCR was further performed in a similar manner with this amplification product as a template using a forward primer represented by SEQ ID NO: 3 and a reverse primer represented by SEQ ID NO: 4. The amplification product obtained by the second PCR was incorporated into a vector (pcDNA3.1 D/V5-His-TOPO (registered trademark), Invitrogen Corporation). This vector with the incorporated amplification product was introduced to E. coli (One Shot TOP10 Competent Cell, Invitrogen Corporation) by a conventional method to perform transformation. This transformed E. coli was cultured for 1 day in an LB agar medium. After the culture, colonies were selected and cultured in an LB liquid medium containing 50 μg/mL of ampicillin. After the culture, the vector was purified using QIAprep Spin Miniprep Kit (Qiagen Corporation). The base sequence (SEQ ID NO: 5) of the inserted site in this vector was compared with the base sequence (Ptger1) of rat EP1 registered under Accession No. NM_013100 in a heretofore known database (NCBI) and consequently was completely identical except for 1 base. Moreover, an amino acid sequence translated from this base sequence was completely identical to the amino acid sequence of the rat EP1 receptor registered under Accession No. NP_037232 in NCBI. Thus, it was confirmed that the cloned gene sequence was the base sequence of the rat EP1 receptor and the obtained amino acid sequence was the rat EP1 receptor. The pcDNA3.1 D/V5-His-TOPO (registered trademark) in which the nucleic acid represented by SEQ ID NO: 5 was inserted was used as a rat EP1 expression vector.
(2) Preparation of Rat EP1 Receptor-Expressing Cell
COS-1 cells (Dainippon Sumitomo Pharma Co., Ltd.) were cultured at 37° C. in an incubator under 5% CO2 gas conditions using a D-MEM liquid medium (containing high glucose and L-glutamine, Invitrogen Corporation) supplemented with a penicillin-streptomycin solution (Invitrogen Corporation, final concentration: 100 U/mL as benzylpenicillin; 100 μg/mL as streptomycin) as antibiotics, MEM non-essential amino acids (Invitrogen Corporation, final concentration: 0.1 mM), and fetal bovine serum (Moregate Biotech, final concentration: 10%), until reaching confluence.
The cells that reached confluence were dissociated with 0.05% trypsin/0.53 mM EDTA.4Na (Invitrogen Corporation) and resuspended in the liquid medium. The resuspended cells were diluted with the liquid medium so that the spread ratio became 1:4 to 1:8, and were cultured.
The cells that reached confluence were dissociated with 0.05% trypsin/0.53 mM EDTA.4Na and resuspended in a D-MEM liquid medium (containing high glucose and L-glutamine, Invitrogen Corporation) supplemented with MEM non-essential amino acids (final concentration: 0.1 mM) and fetal bovine serum (final concentration: 10%). This resuspended cell suspension was prepared with a liquid medium so as to become the number of cells 5×10^4 cells/100 μL of the liquid medium/well in each well of a poly-D-lysine-coated 96-well microplate (BD BioCoat (registered trademark), Nippon Becton Dickinson Co., Ltd.), and this cell preparation was dispensed at 100 μL to each well and seeded. After the seeding, the cells were cultured at 37° C. in an incubator under 5% CO2 gas conditions. The introduction of the rat EP1 expression vector was performed by procedures shown below at the point in time when the cells for introduction of this rat EP1 expression vector adhered (approximately 2 hours after the seeding).
Lipofectamine 2000 (Invitrogen Corporation) was used for the introduction of the rat EP1 expression vector. […]

| SMILES | IC50 |
| --- | --- |
| O=C(O)c1csc(Cc2c(-c3ccccc3)nn3cc(Cl)ccc23)n1 [Example 12-7] | 110 nM |
| COc1ccc2c(Cc3cccc(C(=O)O)c3)c(-c3ccccc3)nn2c1 [Example 3-4, 3-[(6-Methoxy-2-phenylpyrazolo[1,5-a]pyridin-3-yl)methyl]benzoic acid] | 11 nM |
| Cc1ccc2c(Cc3cccc(C(=O)O)n3)c(-c3ccccc3)nn2c1 [Example 3-21, 6-[(6-Methyl-2-phenylpyrazolo[1,5-a]pyridin-3-yl)methyl]pyridine-2-carboxylic acid] | 19 nM |
| COc1ccc2c(Cc3cccc(C(=O)O)n3)c(-c3ccsc3)nn2c1 [Example 3-32, 6-[[6-Methoxy-2-(thiophen-3-yl)pyrazolo[1,5-a]pyridin-3-yl]methyl]pyridine-2-carboxylic acid] | 43 nM |
| O=C(O)c1cccc(Cc2c(-c3ccccc3)nn3cc(Cl)ccc23)c1 [Example 3-2, 3-[(6-Chloro-2-phenylpyrazolo[1,5-a]pyridin-3-yl)methyl]benzoic acid] | 29 nM |
| COc1ccc2c(Cc3cccc(-c4nnn[nH]4)n3)c(-c3ccccc3)nn2c1 [Example 2-1, 6-Methoxy-2-phenyl-3-[[6-(1H-tetrazol-5-yl)pyridin-2-yl]methyl]pyrazolo[1,5-a]pyridine] | 56 nM |
| O=C(O)c1cccc(Cc2c(-c3ccccc3)nn3cc(C(F)(F)F)ccc23)n1 [Example 3-22, 6-[[2-Phenyl-6-(trifluoromethyl)pyrazolo[1,5-a]pyridin-3-yl]methyl]pyridine-2-carboxylic acid] | 19 nM |
| COc1ccc2c(Cc3cccc(C(=O)O)n3)c(-c3ccccc3)nn2c1 [Example 3-5, 6-[(6-Methoxy-2-phenylpyrazolo[1,5-a]pyridin-3-yl)methyl]pyridine-2-carboxylic acid] | 6 nM |
| COc1ccc2c(Cc3ccc(C(=O)O)o3)c(-c3ccccc3)nn2c1 [Example 3-6, 5-[(6-Methoxy-2-phenylpyrazolo[1,5-a]pyridin-3-yl)methyl]furan-2-carboxylic acid] | 60 nM |
| COc1ccc2c(Cc3cccc(C(=O)O)n3)c(C3CCCC3)nn2c1 [Example 3-18, 6-[(2-Cyclopentyl-6-methoxypyrazolo[1,5-a]pyridin-3-yl)methyl]pyridine-2-carboxylic acid] | 170 nM |
| COc1ccc2c(Cc3cccc(C(=O)O)n3)c(-c3ccc(F)cc3)nn2c1 [Example 3-24, 6-[[2-(4-Fluorophenyl)-6-methoxypyrazolo[1,5-a]pyridin-3-yl]methyl]pyridine-2-carboxylic acid] | 16 nM |
| COc1ccc2c(Cc3cccc(C(=O)O)n3)c(C(C)(C)C)nn2c1 [Example 3-15, 6-[(2-tert-Butyl-6-methoxypyrazolo[1,5-a]pyridin-3-yl)methyl]pyridine-2-carboxylic acid] | 39 nM |

Next, values leading:

| IC50 | SMILES |
| --- | --- |
| 62 nM | CS(=O)(=O)NC(=O)c1cccc(Cc2c(-c3ccccc3)nn3cc(Cl)ccc23)n1 [Example 23-1, 6-[(6-Chloro-2-phenylpyrazolo[1,5-a]pyridin-3-yl)methyl]-N-(methylsulfonyl)pyridine-2-carboxamide] |
| 79 nM | O=C(O)c1cccc(Cc2c(N3CCCCC3)nn3cc(Cl)ccc23)n1 [Example 12-26, 6-[[6-Chloro-2-(piperidin-1-yl)pyrazolo[1,5-a]pyridin-3-yl]methyl]pyridine-2-carboxylic acid] |
| 160 nM | CC1(c2nn3cc(Cl)ccc3c2Cc2cccc(C(=O)O)n2)CC1 [Example 12-36, 6-[[6-Chloro-2-(1-methylcyclopropyl)pyrazolo[1,5-a]pyridin-3-yl]methyl]pyridine-2-carboxylic acid] |
| 70 nM | S=c1[nH]c(-c2cccc(Cc3c(-c4ccccc4)nn4cc(Cl)ccc34)n2)no1 [Example 26-1] |
| 2.5 nM | Clc1ccc2c(Cc3cccc(-c4nnn[nH]4)n3)c(-c3ccccc3)nn2c1 [Example 28-1, 6-Chloro-2-phenyl-3-[[6-(1H-tetrazol-5-yl)pyridin-2-yl]methyl]pyrazolo[1,5-a]pyridine] |
